Experimental findings from patent US7090971B2, “Transglutaminase has intrinsic kinase activity” (priority 2004, dated 2006) are described below.

“Also recorded” adds a separate entry of the source.

One assay relates to MCF-7 cell membranes. Put plainly: Phosphorylation of IGFBP-3 by MCF-7 cell membranes. The format is biochemical, human. The note with it: cystamine 20 μM, MDC 200 μM (FIG. 2B). How it is done:
Polystyrene tube were coated with streptavidin and blocked with bovine serum albumin, washed in saline and stored at −20° C. until used. Biotinylated IGFBP-3 (500 ng) was added in streptavidin-coated tubes for 2 h on ice. At the end of incubation, excess, unbound IGFBP-3 was removed. Tubes were placed on ice and phosphorylation reaction mixture containing 20 mM Tris buffered saline pH 7.5, 10 mM Mg/ATP, 60 μCi/ml ^32P-ATP was added. Reaction was initiated by the addition of membrane fraction and allowed to proceed for 30 min at 30° C. Reaction was stopped by addition of SDS-PAGE sample buffer, boiled for 7–10 min and analyzed on 11% gel. Subsequently gels were dried and processed for autoradiography. In some cases 2 μU of pure TG2 (Sigma-Aldrich, MO) or histidine-tagged full length human TG2 expressed using baculovirus expression system in insect cells and purified by Ni(II)-nitroacetate agarose chromatography was used to phosphorylate IGFBP-3 in presence or absence of TG2 specific inhibitors. […] At the end of incubation, reaction mixture was aspirated, reaction was stopped by addition of sample buffer and analyzed on 11% gel. […]
We assessed the effect of the TG2 and ROCK2 inhibitors on phosphorylation of IGFBP-3 by cell monolayers. […] After termination of the incubation, the IGFBP-3 was analyzed by SDS-PAGE and autoradiography (FIG. 2A). […]

In another assay the test system is T47D cell membranes. Put plainly: Phosphorylation of IGFBP-3 by T47D cell membranes. The format is biochemical, human. The settings on record: cystamine 20 μM (10 and 20 μM in FIG. 2C), MDC 200 μM, ROCK2 inhibitor 2 and 5 μM (FIG. 2B, 2C). How it is done: (§1) Polystyrene tube were coated with streptavidin and blocked with bovine serum albumin, washed in saline and stored at −20° C. until used. Biotinylated IGFBP-3 (500 ng) was added in streptavidin-coated tubes for 2 h on ice. At the end of incubation, excess, unbound IGFBP-3 was removed. Tubes were placed on ice and phosphorylation reaction mixture containing 20 mM Tris buffered saline pH 7.5, 10 mM Mg/ATP, 60 μCi/ml ^32P-ATP was added. Reaction was initiated by the addition of membrane fraction and allowed to proceed for 30 min at 30° C. Reaction was stopped by addition of SDS-PAGE sample buffer, boiled for 7–10 min and analyzed on 11% gel. Subsequently gels were dried and processed for autoradiography. In some cases 2 μU of pure TG2 (Sigma-Aldrich, MO) or histidine-tagged full length human TG2 expressed using baculovirus expression system in insect cells and purified by Ni(II)-nitroacetate agarose chromatography was used to phosphorylate IGFBP-3 in presence or absence of TG2 specific inhibitors. In experiments where cell monolayers were used to phosphorylate IGFBP-3, cells were grown in 24-well culture plate to near confluence and washed with PBS to remove residual media and serum. Phosphorylation was then performed in 100 pI reaction mixture as above, containing 1 μg IGFBP-3 for 10 min at 37° C. At the end of incubation, reaction mixture was aspirated, reaction was stopped by addition of sample buffer and analyzed on 11% gel. In some experiments, cell monolayer were treated with TG2 inhibitor for 30 min prior to the phosphorylation reaction.
We assessed the effect of the TG2 and ROCK2 inhibitors on phosphorylation of IGFBP-3 by cell monolayers. We have previously shown that intact washed cells were able to phosphorylate IGFBP-3 immobilized on polystyrene tubes (Mishra and Murphy, 2003). T47D cell monolayers were incubated for 30 minutes in the presence of various concentrations of cystamine, an inhibitor of TG2. The washed cell monolayers were incubated with IGFBP-3 in the presence of ^32P-ATP for 10 minutes at 37° C. After termination of the incubation, the IGFBP-3 was analyzed by SDS-PAGE and autoradiography (FIG. 2A). […] Similar experiments were undertaken utilizing membrane preparations from both T47D and MCF-7 cells. As reported previously both T47D and MCF-7 cells were able to phosphorylate IGFBP-3. This process was inhibited by cystamine and MDC in both cells lines (FIG. 2B). DMSO the vehicle in which MDC was dissolved had no effect. Since TG2 has been found in association with ROCK2, a Rho-kinase (Singh et al., 2001, EMBO J., 20:2413–2423), and ROCK2 was present in the affinity purified cell membrane fractions, we investigated the effect of the ROCK2 inhibitor, R (+)trans-N-(4-pyridyl)-4-(1aminoethyl)-cyclohexanecarboxamide dihydrochloride. […]

The target in assay [1] is T1, TG2 (Homo sapiens, UniProt P21980).
T1 sequence (P21980 1-687): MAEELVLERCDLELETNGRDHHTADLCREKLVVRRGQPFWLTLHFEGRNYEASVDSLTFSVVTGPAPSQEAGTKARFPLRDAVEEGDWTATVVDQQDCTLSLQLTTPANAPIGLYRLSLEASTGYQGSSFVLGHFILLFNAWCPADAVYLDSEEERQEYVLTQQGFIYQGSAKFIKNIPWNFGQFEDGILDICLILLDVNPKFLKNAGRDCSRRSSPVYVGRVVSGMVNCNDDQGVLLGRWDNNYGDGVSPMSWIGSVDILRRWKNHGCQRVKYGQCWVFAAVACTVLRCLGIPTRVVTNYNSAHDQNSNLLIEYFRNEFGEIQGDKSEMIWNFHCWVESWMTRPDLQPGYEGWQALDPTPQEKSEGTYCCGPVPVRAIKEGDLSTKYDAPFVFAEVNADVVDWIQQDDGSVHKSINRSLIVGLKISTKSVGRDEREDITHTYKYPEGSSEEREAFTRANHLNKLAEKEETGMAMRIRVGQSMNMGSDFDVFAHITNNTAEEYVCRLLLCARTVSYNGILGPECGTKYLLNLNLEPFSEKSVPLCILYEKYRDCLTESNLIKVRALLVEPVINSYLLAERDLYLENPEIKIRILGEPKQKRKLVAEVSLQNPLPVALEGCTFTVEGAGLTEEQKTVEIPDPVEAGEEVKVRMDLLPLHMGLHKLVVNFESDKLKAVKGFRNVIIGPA
Kind of assay: IGFBP-3 kinase activity of recombinant human TG2. The format is biochemical. Set-up: histidine-tagged full length human TG2 expressed using baculovirus expression system in insect cells; histidine tag; made in house; host or cells: insect cells (baculovirus expression system). The settings on record: for effect on phosphorylation of IGFBP-3 by human recombinant TG2: cystamine 20 μM, MDC 200 μM (FIG. 4A). How it is done:
as §1
Purified guinea pig liver TG2 and human recombinant TG2 both were able to phosphorylate IGFBP-3 (FIG. 4A). This process was inhibited cystamine and MDC. The related binding protein IGFBP-5 was also phosphorylated by TG2 whereas IGFBP-1 was not phosphorylated by TG2 (FIG. 4B). […] Fibronectin, another reported substrate for TG2 (Akimov and Belkin, 2001, J. Cell Sci., 114:2989–3000), was not phosphorylated by this enzyme under the conditions we used to phosphorylate IGFBP-3 (FIG. 4B). […]

The target in the next assay is T2, guinea pig liver TG2 (UniProt P08587).
T2 construct: Both TG2 purified from guinea pig liver and recombinant human TG2 expressed in insect cells were able to phosphorylate IGFBP-3; purchased Sigma-Aldrich, MO; host or cells: guinea pig liver (tissue-purified)
T2 sequence (P08587 1-690): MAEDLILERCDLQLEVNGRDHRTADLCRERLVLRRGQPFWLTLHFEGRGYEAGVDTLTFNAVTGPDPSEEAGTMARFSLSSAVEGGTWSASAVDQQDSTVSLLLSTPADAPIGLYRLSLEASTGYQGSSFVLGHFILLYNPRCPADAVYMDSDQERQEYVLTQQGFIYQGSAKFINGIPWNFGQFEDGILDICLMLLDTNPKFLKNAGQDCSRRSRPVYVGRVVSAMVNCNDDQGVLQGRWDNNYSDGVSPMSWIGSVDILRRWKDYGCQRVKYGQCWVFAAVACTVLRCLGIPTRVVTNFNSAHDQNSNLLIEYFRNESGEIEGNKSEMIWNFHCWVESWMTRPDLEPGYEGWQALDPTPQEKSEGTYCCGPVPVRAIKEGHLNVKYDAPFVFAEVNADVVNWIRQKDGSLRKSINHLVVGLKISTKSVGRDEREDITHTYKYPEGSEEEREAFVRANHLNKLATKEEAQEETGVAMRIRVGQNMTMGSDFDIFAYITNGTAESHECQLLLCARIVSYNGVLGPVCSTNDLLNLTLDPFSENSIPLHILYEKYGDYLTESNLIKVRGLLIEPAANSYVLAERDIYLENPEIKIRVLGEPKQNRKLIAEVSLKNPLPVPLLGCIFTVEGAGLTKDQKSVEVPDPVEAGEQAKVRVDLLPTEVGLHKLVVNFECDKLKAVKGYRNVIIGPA
Put plainly: IGFBP-3 kinase activity of purified guinea pig liver TG2. The format is biochemical. The note with it: cystamine 20 μM, MDC 200 μM (FIG. 4A). As for the experimental part:
as §1, with “Phosphorylation was then performed in 100 pI reaction mixture as above, containing 1 μg IGFBP-3 for 10 min at 37° C.” left out, “In some experiments, cell monolayer were treated with TG2 inhibitor for 30 min prior to the phosphorylation reaction.” left out

A further assay concerns T47D cell monolayers. Put plainly: Phosphorylation of IGFBP-3 by T47D cell monolayers. The format is cell-based, human. How it is done: as §1
We assessed the effect of the TG2 and ROCK2 inhibitors on phosphorylation of IGFBP-3 by cell monolayers. We have previously shown that intact washed cells were able to phosphorylate IGFBP-3 immobilized on polystyrene tubes (Mishra and Murphy, 2003). T47D cell monolayers were incubated for 30 minutes in the presence of various concentrations of cystamine, an inhibitor of TG2. […] After termination of the incubation, the IGFBP-3 was analyzed by SDS-PAGE and autoradiography (FIG. 2A). […]

The target of assay [2] is T1, TG2. Put plainly: IGFBP-3 kinase activity of anti-TG2 immunoprecipitates from solubilized membranes. The format is biochemical. Set-up: endogenous in cells; host or cells: T47D or MCF-7 cell membranes (anti-TG2 immunoprecipitate on protein A-agarose). The settings on record: cystamine 20 μM, ROCK2 inhibitor 5 μM (FIG. 3C). As for the experimental part: To 200 μl of solubilized membranes from T47D of MCF-7 cells, 10 μl of anti-TG2 goat polyclonal antiserum (Upstate Biotechnology, Lake Placid, N.Y.) and incubated for 1 h at 4° C. 20 μl of protein A-agarose (Pierce) was added and further incubated on a rotating device overnight at 4° C. At the end of incubation the pellet was washed four times in ice cold PBS. The supernatant was discarded and the pellet was resuspended in 50 μl of kinase buffer. 10 μl of the resuspended sample was used for phosphorylation of 500 ng of IGFBP-3. The samples were analyzed by SDS-PAGE, autoradiography and immunoblotting with TG2 antiserum.
We next examined the effect of TG2 and ROCK2 antisera on IGFBP-3 kinase activity present in cell membrane preparations. Antiserum against TG2 but not ROCK2 antiserum was able to immunodeplete IGFBP-3 kinase activity from membrane preparations (FIG. 3A). When the immunoprecipitates were analyzed for kinase activity, the precipitates obtained with TG2 antiserum but not those obtained with ROCK2 antiserum had kinase activity. Furthermore, the IGFBP-3 kinase activity present in the immunoprecipitates was inhibited by cystamine but not by the ROCK2 inhibitor.

Assay [3] has as its target T1, TG2. Put plainly: Cross-linking activity of recombinant TG2 (polymerization of IGFBP-3). Set-up: histidine-tagged full length human TG2 expressed using baculovirus expression system in insect cells; histidine tag; made in house; host or cells: insect cells (baculovirus expression system). The settings on record: recombinant TG2, increasing calcium concentration (FIG. 4C). The format is biochemical.

Where [4] appears, read: T47D cell monolayers pre-incubated 30 minutes with inhibitor, 32P-ATP, 10 minutes at 37° C., autoradiography (FIG. 2A).

In the case of `CN(C)c1cccc2c(S(=O)(=O)NCCCCCN)cccc12` [MDC, monodansyl cadaverine], the “effect on phosphorylation of IGFBP-3 by MCF-7 cell membranes” value in the assay with MCF-7 cell membranes is “inhibited”. The “effect on phosphorylation of IGFBP-3 by T47D cell membranes” value (from here on “effect … by T47D cell membranes”) in the assay on T47D cell membranes is “inhibited”; with T47D cell membranes (listed as monodansyl cadaverine), “abolished”. At TG2 [1], the “effect on phosphorylation of IGFBP-3 by human recombinant TG2” value is “inhibited”. The “effect on phosphorylation of IGFBP-3 by purified guinea pig liver TG2” value at guinea pig liver TG2 was “inhibited”.

Turning to `C[C@@H](N)[C@H]1CC[C@H](C(=O)Nc2ccncc2)CC1.Cl.Cl` (relative stereo) [ROCK2 inhibitor, R (+)trans-N-(4-pyridyl)-4-(1aminoethyl)-cyclohexanecarboxamide dihydrochloride], in the assay on T47D cell monolayers (breast cancer cell monolayers (FIG. 2A)), the “effect on IGFBP-3 kinase activity of breast cancer cell monolayers” value is reported as “no effect”. The “effect … by T47D cell membranes” value in the assay with T47D cell membranes is “no effect”. The “effect on IGFBP-3 kinase activity present in anti-TG2 immunoprecipitates” value at TG2 [2] is “not”.

For the molecule `[Ca+2]` [calcium], the “effect of increasing calcium concentration on polymerization of IGFBP-3 (cross-linking activity of TG2)” value at TG2 [3] was “increase in polymerization”. In addition, the “effect of increasing calcium concentration on kinase activity of TG2” value at TG2 [1] (recombinant TG2, increasing calcium concentration (FIG. 4C)) is given as “decrease in the kinase activity; also recorded: inhibited in a concentration dependent fashion”.

In the case of `NCCSSCCN` [cystamine], in the assay on MCF-7 cell membranes, the “effect on phosphorylation of IGFBP-3 by MCF-7 cell membranes” value was “inhibited”. In the assay on T47D cell monolayers (setting [4]), the “concentration at which complete inhibition of IGFBP-3 phosphorylation was apparent” value was found to be 50 µM and the “concentration at which inhibition of IGFBP-3 phosphorylation was seen (as little as)” value came out at 20 µM. Also, the “effect … by T47D cell membranes” value in the assay on T47D cell membranes is recorded as “inhibited; also recorded: abolished”. Further, the “effect on phosphorylation of IGFBP-3 by human recombinant TG2” value on TG2 [1] is given as “inhibited”. In addition, the “effect on phosphorylation of IGFBP-3 by purified guinea pig liver TG2” value at guinea pig liver TG2 is recorded as “inhibited”. For the same molecule, the “effect on IGFBP-3 kinase activity present in anti-TG2 immunoprecipitates” value on TG2 [2] is on record as “inhibited”.
